Data reported in patent US11434205B2, “Substituted imidazole carboxylate derivatives and the use thereof” (priority 2018, dated 2022).
Where two headings read alike, the source gives them in different places.

How the values were obtained:
[1] = test system: rats; experiment: Loss of righting reflexes (LORR) assay in rats, ED50 by up and down method; type: in vivo, rat; settings: tail vein, class symbols; for ED50: Rattus norvegicus
In short: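 ED50 obtained by up-and-down dosing, with righting-reflex loss over 30 s counted as general anesthesia. Compounds injected into the tail vein (0.1 mL/s) of male Sprague-Dawley rats weighing 250-300 g.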

[2] = test system: rats
Procedure: Adult male Sprague-Dawley rats (250-300 g) were selected for the experiment. […] The anesthesia effects of the compounds were assessed in rats using a LORR assay and a period >30 s was considered as an indicator of general anesthesia. Then the up and down method was used to determine 50% effective dose (ED50). The drugs were administered through the tail vein of rats in a volume of 0.6 mL and at a rate of 0.1 mL/s.

[3] = test system: rats; experiment: Pharmacological characteristics at equivalent doses (2×ED50) in rats; settings: 2×ED50, tail vein; for Adverse reactions: Red urine (incidence): DMSO solution (DMSO alone 10/10); for Onset time: time of LORR; for Adverse reactions: Tremor (incidence): animals affected/animals
In short: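 Anesthesia onset, recorded as time of LORR, was measured after a 2×ED50 tail-vein injection (0.6 mL, 0.1 mL/s). Animals were male Sprague-Dawley rats of 250-300 g, n=8.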

[4] = test system: rats; type: in vivo, rat; settings: rats of the MAP/HR figures, 2×ED50, tail vein; same value in min
In short: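 Hemodynamic stability judged from mean arterial pressure and heart rate, recorded at 15 s intervals over 30 min pre- and post-dose. Dosing was through a tail-vein indwelling catheter in rats carrying implanted aortic/ventricular catheters and ECG wires, operated ≥1 week earlier.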

[5] = test system: rats; type: in vivo, rat; settings: rats of the MAP/HR figures, 2×ED50, tail vein

SMILES	ED50 [1] [mg/kg]	Approximate therapeutic index [2]	Minimal lethal dose [2] [mg/kg]	Righting reflex duration [3] [min]	Adverse reactions: Red urine (incidence) [3]	Onset time [3] [min]	recovery time of the test animals' righting reflex [4] [min]	recovery time of the test animals' righting reflex [5] [s]	ED50 (mg/kg) [1]	Sedation duration (mg/kg) [3]	Adverse reactions: Restlessness (incidence) [3]	Adverse reactions: Tremor (incidence) [3]
C=CC1(OC(=O)c2cncn2[C@H](C)c2ccccc2)COC1 [Compound D7]	0.5 to 1	>10	>6	3.20 ± 0.81	Red urine (8/8)	0.10 ± 0.01	6.83	410				
C=CC#CC(C)(C)OC(=O)c1c(F)ncn1[C@H](C)c1ccccc1 [Compound E21]		>12	>9	2.76 ± 2.17	(8/8)	0.49 ± 0.20	2.58	155	C (C indicates that the measured ED50 is in the range of 0.50-1.00 mg/kg (excluding 0.50 mg/kg, including 1.00 mg/kg).)	7.71 ± 3.03		
CCC(C)(CC)OC(=O)c1c(F)ncn1[C@H](C)c1ccccc1 [Compound E30]	0.1 to 0.5	>42	>6	1.23 ± 0.58	(8/8)	0.60 ± 0.18	1.33	80				
C[C@H](c1ccccc1)n1cnc(F)c1C(=O)OC1(C)CCC1 [Compound E27]		>24	>6	4.13 ± 1.12	(8/8)	0.31 ± 0.10	4.10	246	B (B means that the measured ED50 is in the range of 0.10-0.50 mg/kg (excluding 0.10 mg/kg, including 0.50 mg/kg).)	10.23 ± 1.60		
C[C@H](c1ccccc1)n1cnc(F)c1C(=O)OC1CSC1 [Compound E11]	0.01 to 0.1	>60	>4	1.52 ± 0.53	(8/8)	0.57 ± 0.25	1.55	93				
C[C@H](c1ccccc1)n1cnc(F)c1C(=O)OCC(C)(C)C [Compound E26]		>50	>4	1.45 ± 0.41	(8/8)	0.48 ± 0.09	1.57	94	A (A indicates that the measured ED50 is in the range of 0.01-0.10 mg/kg (including 0.01 and 0.10 mg/kg).)	6.37 ± 1.31		
C#CC(C)(C)OC(=O)c1c(F)ncn1[C@H](C)c1ccccc1 [Compound E25]	0.1 to 0.5	>24	>6	2.10 ± 0.86	urine (8/8)	0.25 ± 0.09	2.23	134			(2/8), Red	
C=C=CC1(OC(=O)c2cncn2[C@H](C)c2ccccc2)CCOCC1 [Compound D34]	0.5 to 1	>13	>8	4.50 ± 0.86	Red urine (8/8)	0.11 ± 0.04	2.83	170				
C[C@H](c1ccccc1)n1cnc(F)c1C(=O)OC1CCC1 [Compound E9]		>48	>6	1.24 ± 0.79	(8/8)	0.42 ± 0.20	1.28	77	B (B means that the measured ED50 is in the range of 0.10-0.50 mg/kg (excluding 0.10 mg/kg, including 0.50 mg/kg).)	9.29 ± 2.07		
CCC(CC)OC(=O)c1c(F)ncn1[C@H](C)c1ccccc1 [Compound E22]		>30	>4	0.99 ± 0.70	urine (8/8)	0.73 ± 0.13	1.10	66	B (B means that the measured ED50 is in the range of 0.10-0.50 mg/kg (excluding 0.10 mg/kg, including 0.50 mg/kg).)	5.51 ± 1.13		(4/8), Red
CC#CC1(OC(=O)c2c(F)ncn2[C@H](C)c2ccccc2)COC1 [Compound E15]	0.1 to 0.5	>32	>5	1.10 ± 0.89	urine (8/8)	0.42 ± 0.13	1.20	72				(2/8), Red
CC(=O)C1(OC(=O)c2cncn2[C@H](C)c2ccccc2)CC1 [Compound C1]	0.01 to 0.1	>90	>20	1.9 ± 0.64	(8/8)	0.15 ± 0.09	2.17	130				Tremor (8/8), Red urine
CCCC(C)(C)OC(=O)c1c(F)ncn1[C@H](C)c1ccccc1 [Compound E29]	0.1 to 0.5	>15	>6	2.74 ± 2.63	(8/8)	0.48 ± 0.21	2.75	165				
C=C=CC(C)OC(=O)c1c(F)ncn1[C@H](C)c1ccccc1 (stereo partly shown) [Compound E18]	0.01 to 0.1	>20	>1	2.51 ± 1.69	(8/8)	0.40 ± 0.20	2.63	158				
